Reference: publication PMC6286870 (European journal of pharmaceutics and biopharmaceutics : …, 2018)
“Also recorded” adds a separate entry of the source.

Legend:
[1] = biological target: T1, CXCR4 (Homo sapiens, UniProt P61073); test: Inhibition of CXCR4 mAb-binding to TZM-bl cells; conditions: serial dilutions in 1 μg/ml CXCR4 mAb, fixed TZM-bl cells, 40 min on ice
[2] = tested on: HIV-1 IIIB; test: HIV-1 entry inhibition assay in TZM-bl reporter cells, X4 strain; type: cell-based
[3] = biological target: T1, CXCR4; test: cell-based; conditions: TZM-bl, read-out: Inhibition of cell-associated 4DV3-Biot

T1 sequence (P61073 whole entry): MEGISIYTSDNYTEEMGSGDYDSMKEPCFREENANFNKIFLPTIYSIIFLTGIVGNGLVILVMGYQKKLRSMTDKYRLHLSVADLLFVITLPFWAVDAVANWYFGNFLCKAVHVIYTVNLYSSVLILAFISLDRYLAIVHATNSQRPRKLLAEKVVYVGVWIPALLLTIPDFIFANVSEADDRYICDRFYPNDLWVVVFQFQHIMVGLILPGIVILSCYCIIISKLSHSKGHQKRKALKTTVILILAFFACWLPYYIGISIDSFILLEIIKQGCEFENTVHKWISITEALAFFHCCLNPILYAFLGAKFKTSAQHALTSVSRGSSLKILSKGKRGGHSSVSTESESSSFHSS

## c1cc(CN2CCCNCCNCCCNCC2)ccc1CN1CCCNCCNCCCNCC1 [AMD3100, bicyclam JM-2987]
[1]
  Inhibition of CXCR4 mAb clone 44708 binding to TZM-bl cells, in words: poor ability to inhibit mAb binding; also recorded: ineffective at the tested concentrations
[2]; Human immunodeficiency virus 1, IIIB, TZM-bl, read-out: IC50 of HIV-1 entry inhibition, X4 strain HIV-1 IIIB
  IC50: 415 pM
[2]; more potent than 4DV3-FITC, ratio of IC50, TZM-bl cells
  Potency of HIV-1 IIIB entry inhibition relative to 4DV3-FITC: 1000 fold
[3]
  inhibition at 20 µM: 31%
  inhibition at 200 µM: 47%
